Measurements published in ChEMBL document CHEMBL4219224, “Structure based drug design and in vitro metabolism study: Discovery of N-(4-methylthiophenyl)-N,2-dimethyl-cyclopenta[d]pyrimidine as a potent microtubule targeting agent” (Bioorg Med Chem, 2018).

Assays:
Format in all cases: functional
[1] = system: HOP-62; assay: Growth inhibition of human HOP62 cells incubated for 48 hrs by sulforhodamine B assay; conditions: HOP-62, 48 h
[2] = system: SNB-75; assay: Growth inhibition of human SNB75 cells incubated for 48 hrs by sulforhodamine B assay; conditions: SNB-75, 48 h
[3] = system: NCI-H322M; assay: Growth inhibition of human NCI-H322M cells incubated for 48 hrs by sulforhodamine B assay
[4] = system: TK-10; assay: Growth inhibition of human TK10 cells incubated for 48 hrs by sulforhodamine B assay; conditions: TK-10, 48 h
[5] = system: MDA-MB-231; assay: Growth inhibition of human MDA-MB-231 cells incubated for 48 hrs by sulforhodamine B assay; conditions: MDA-MB-231, 48 h
[6] = system: Hs-578T; assay: Growth inhibition of human Hs578T cells incubated for 48 hrs by sulforhodamine B assay
[7] = system: KM12; assay: Growth inhibition of human KM12 cells incubated for 48 hrs by sulforhodamine B assay; conditions: KM12, 48 h
[8] = system: DU-145; assay: Growth inhibition of human DU145 cells incubated for 48 hrs by sulforhodamine B assay; conditions: DU-145, 48 h
[9] = system: NCI/ADR-RES; assay: Growth inhibition of human NCI/ADR-RES cells incubated for 48 hrs by sulforhodamine B assay
[10] = system: SNB-19; assay: Growth inhibition of human SNB19 cells incubated for 48 hrs by sulforhodamine B assay; conditions: SNB-19, 48 h
[11] = system: SK-MEL-5; assay: Growth inhibition of human SK-MEL-5 cells incubated for 48 hrs by sulforhodamine B assay; conditions: SK-MEL-5, 48 h
[12] = system: COLO 205; assay: Growth inhibition of human COLO205 cells incubated for 48 hrs by sulforhodamine B assay; conditions: COLO 205, 48 h
[13] = system: RPMI-8226; assay: Growth inhibition of human RPMI8226 cells incubated for 48 hrs by sulforhodamine B assay; conditions: RPMI-8226, 48 h
[14] = system: A498; assay: Growth inhibition of human A498 cells incubated for 48 hrs by sulforhodamine B assay; conditions: A498, 48 h
[15] = system: CCRF-CEM; assay: Growth inhibition of human CCRF-CEM cells incubated for 48 hrs by sulforhodamine B assay
[16] = system: M14; assay: Growth inhibition of human M14 cells incubated for 48 hrs by sulforhodamine B assay; conditions: M14, 48 h
[17] = system: OVCAR-3; assay: Growth inhibition of human OVCAR3 cells incubated for 48 hrs by sulforhodamine B assay; conditions: OVCAR-3, 48 h
[18] = system: EKVX; assay: Growth inhibition of human EKVX cells incubated for 48 hrs by sulforhodamine B assay
[19] = system: MDA-MB-468; assay: Growth inhibition of human MDA-MB-468 cells incubated for 48 hrs by sulforhodamine B assay; conditions: MDA-MB-468, 48 h
[20] = system: SK-MEL-28; assay: Growth inhibition of human SK-MEL-28 cells incubated for 48 hrs by sulforhodamine B assay; conditions: SK-MEL-28, 48 h
[21] = system: MOLT-4; assay: Growth inhibition of human MOLT4 cells incubated for 48 hrs by sulforhodamine B assay; conditions: MOLT-4, 48 h
[22] = system: PC-3; assay: Growth inhibition of human PC3 cells incubated for 48 hrs by sulforhodamine B assay; conditions: PC-3, 48 h
[23] = system: NCI-H460; assay: Growth inhibition of human NCI-H460 cells incubated for 48 hrs by sulforhodamine B assay; conditions: NCI-H460, 48 h
[24] = system: HT-29; assay: Growth inhibition of human HT-29 cells incubated for 48 hrs by sulforhodamine B assay; conditions: HT-29, 48 h
[25] = system: SR; assay: Growth inhibition of human SR cells incubated for 48 hrs by sulforhodamine B assay
[26] = system: 786-0; assay: Growth inhibition of human 786-0 cells incubated for 48 hrs by sulforhodamine B assay; conditions: 786-0, 48 h
[27] = system: K562; assay: Growth inhibition of human K562 cells incubated for 48 hrs by sulforhodamine B assay; conditions: K562, 48 h
[28] = system: IGROV-1; assay: Growth inhibition of human IGROV1 cells incubated for 48 hrs by sulforhodamine B assay; conditions: IGROV-1, 48 h
[29] = system: HL-60(TB); assay: Growth inhibition of human HL-60(TB) cells incubated for 48 hrs by sulforhodamine B assay; conditions: HL-60, 48 h
[30] = system: SK-OV-3; assay: Growth inhibition of human SKOV3 cells incubated for 48 hrs by sulforhodamine B assay; conditions: SK-OV-3, 48 h
[31] = system: HCC 2998; assay: Growth inhibition of human HCC2998 cells incubated for 48 hrs by sulforhodamine B assay; conditions: HCC 2998, 48 h
[32] = system: HCT-15; assay: Growth inhibition of human HCT15 cells incubated for 48 hrs by sulforhodamine B assay; conditions: HCT-15, 48 h
[33] = system: BT-549; assay: Growth inhibition of human BT549 cells incubated for 48 hrs by sulforhodamine B assay; conditions: BT-549, 48 h
[34] = system: U-251; assay: Growth inhibition of human U251 cells incubated for 48 hrs by sulforhodamine B assay; conditions: U-251, 48 h
[35] = system: UACC-62; assay: Growth inhibition of human UACC62 cells incubated for 48 hrs by sulforhodamine B assay; conditions: UACC-62, 48 h
[36] = system: HOP-92; assay: Growth inhibition of human HOP92 cells incubated for 48 hrs by sulforhodamine B assay; conditions: HOP-92, 48 h
[37] = system: SF-539; assay: Growth inhibition of human SF539 cells incubated for 48 hrs by sulforhodamine B assay; conditions: SF-539, 48 h
[38] = system: SW-620; assay: Growth inhibition of human SW620 cells incubated for 48 hrs by sulforhodamine B assay; conditions: SW-620, 48 h
[39] = system: NCI-H23; assay: Growth inhibition of human NCI-H23 cells incubated for 48 hrs by sulforhodamine B assay; conditions: NCI-H23, 48 h
[40] = system: CAKI-1; assay: Growth inhibition of human Caki1 cells incubated for 48 hrs by sulforhodamine B assay; conditions: CAKI-1, 48 h
[41] = system: OVCAR-5; assay: Growth inhibition of human OVCAR5 cells incubated for 48 hrs by sulforhodamine B assay; conditions: OVCAR-5, 48 h
[42] = system: MCF7; assay: Growth inhibition of human MCF7 cells incubated for 48 hrs by sulforhodamine B assay; conditions: MCF7, 48 h
[43] = system: MDA-MB-435; assay: Growth inhibition of human MDA-MB-435 cells incubated for 48 hrs by sulforhodamine B assay; conditions: MDA-MB-435, 48 h
[44] = system: OVCAR-4; assay: Growth inhibition of human OVCAR4 cells incubated for 48 hrs by sulforhodamine B assay; conditions: OVCAR-4, 48 h
[45] = system: OVCAR-8; assay: Growth inhibition of human OVCAR8 cells incubated for 48 hrs by sulforhodamine B assay; conditions: OVCAR-8, 48 h
[46] = system: UO-31; assay: Growth inhibition of human UO31 cells incubated for 48 hrs by sulforhodamine B assay; conditions: UO-31, 48 h
[47] = system: SN12C; assay: Growth inhibition of human SN12C cells incubated for 48 hrs by sulforhodamine B assay
[48] = system: SF-295; assay: Growth inhibition of human SF295 cells incubated for 48 hrs by sulforhodamine B assay; conditions: SF-295, 48 h
[49] = system: SF-268; assay: Growth inhibition of human SF268 cells incubated for 48 hrs by sulforhodamine B assay; conditions: SF-268, 48 h
[50] = system: ACHN; assay: Growth inhibition of human ACHN cells incubated for 48 hrs by sulforhodamine B assay
[51] = system: Malme-3M; assay: Growth inhibition of human MALME-3M cells incubated for 48 hrs by sulforhodamine B assay
[52] = system: A549; assay: Growth inhibition of human A549/ATCC cells incubated for 48 hrs by sulforhodamine B assay; conditions: A549, 48 h
[53] = system: LOX IMVI; assay: Growth inhibition of human LOXIMVI cells incubated for 48 hrs by sulforhodamine B assay
[54] = system: HCT-116; assay: Growth inhibition of human HCT116 cells incubated for 48 hrs by sulforhodamine B assay; conditions: HCT-116, 48 h
[55] = system: SK-MEL-2; assay: Growth inhibition of human SK-MEL-2 cells incubated for 48 hrs by sulforhodamine B assay; conditions: SK-MEL-2, 48 h
[56] = system: NCI-H522; assay: Growth inhibition of human NCI-H522 cells incubated for 48 hrs by sulforhodamine B assay; conditions: NCI-H522, 48 h
[57] = system: RXF 393; assay: Growth inhibition of human RXF393 cells incubated for 48 hrs by sulforhodamine B assay; conditions: RXF 393, 48 h
[58] = system: NCI-H226; assay: Growth inhibition of human NCI-H226 cells incubated for 48 hrs by sulforhodamine B assay; conditions: NCI-H226, 48 h

With `CC(=O)O[C@H]1C(=O)[C@@]2(C)[C@H]([C@H](OC(=O)c3ccccc3)[C@]3(O)C[C@H](OC(=O)[C@H](O)[C@@H](NC(=O)c4ccccc4)c4ccccc4)C(C)=C1C3(C)C)[C@]1(OC(C)=O)CO[C@@H]1C[C@@H]2O` [PACLITAXEL] the GI50 [1] was 19 nM, the GI50 [2] was 7.9 nM and the GI50 [3] was 12.5 nM. It also gave a GI50 [4] of 19.9 nM, a GI50 [5] of 12.5 nM and a GI50 [6] of 5 nM. For the same compound, the GI50 [7] was 5 nM, the GI50 [8] was 6.3 nM and the GI50 [9] was 630 nM. For the same compound, the GI50 [10] was 10 nM, the GI50 [11] was 5 nM and the GI50 [12] was 7.9 nM. For the same compound, the GI50 [13] was 19.9 nM, the GI50 [14] was 7.9 nM and the GI50 [15] was 5 nM. The GI50 [16] was 5 nM, the GI50 [17] was 4 nM and the GI50 [18] was 79 nM. It also gave a GI50 [19] of 12.5 nM, a GI50 [20] of 400 nM and a GI50 [21] of 5 nM. The GI50 [22] was 6.3 nM, the GI50 [23] was 6.3 nM and the GI50 [24] was 5 nM. The GI50 [25] was 6.3 nM, the GI50 [26] was 39 nM and the GI50 [27] was 6.3 nM. The GI50 [28] was 6.3 nM, the GI50 [29] was 4 nM and the GI50 [30] was 6.3 nM. The GI50 [31] was 1 nM, the GI50 [32] was 125 nM and the GI50 [33] was 4 nM. For the same compound, the GI50 [34] was 6.3 nM, the GI50 [35] was 5 nM and the GI50 [36] was 25 nM. For the same compound, the GI50 [37] was 5 nM, the GI50 [38] was 4 nM and the GI50 [39] was 6.3 nM. It also gave a GI50 [40] of 158 nM, a GI50 [41] of 7.9 nM and a GI50 [42] of 4 nM. The GI50 [43] was 4 nM, the GI50 [44] was 630 nM and the GI50 [45] was 7.9 nM. It also gave a GI50 [46] of 125 nM, a GI50 [47] of 6.3 nM and a GI50 [48] of 25 nM. The GI50 [49] was 5 nM, the GI50 [50] was 158 nM and the GI50 [51] was 50 nM. For the same compound, the GI50 [52] was 6.3 nM, the GI50 [53] was 5 nM and the GI50 [54] was 4 nM. For the same compound, the GI50 [55] was 400 nM, the GI50 [56] was 15.8 nM and the GI50 [57] was 15.8 nM. For the same compound, the GI50 [58] was 3.9 nM.
